# According to publication PMC2837273 (Drug metabolism and disposition: the biological fate of …, 2008):
# Entries after “also recorded” stand apart in the source; their conditions may differ. Like-named read-outs stand apart in the source and are kept apart here.
# Tests used:
# [1] = system: Abcg2; details: wild-type and P-gp deficient mice; ref Cisternino et al., 2004; cited from earlier work
# [2] = biological target: T1, rat Abcg2 (Rattus norvegicus, UniProt Q80W57); assay type: cell-based
# T1 sequence (Q80W57 1-657): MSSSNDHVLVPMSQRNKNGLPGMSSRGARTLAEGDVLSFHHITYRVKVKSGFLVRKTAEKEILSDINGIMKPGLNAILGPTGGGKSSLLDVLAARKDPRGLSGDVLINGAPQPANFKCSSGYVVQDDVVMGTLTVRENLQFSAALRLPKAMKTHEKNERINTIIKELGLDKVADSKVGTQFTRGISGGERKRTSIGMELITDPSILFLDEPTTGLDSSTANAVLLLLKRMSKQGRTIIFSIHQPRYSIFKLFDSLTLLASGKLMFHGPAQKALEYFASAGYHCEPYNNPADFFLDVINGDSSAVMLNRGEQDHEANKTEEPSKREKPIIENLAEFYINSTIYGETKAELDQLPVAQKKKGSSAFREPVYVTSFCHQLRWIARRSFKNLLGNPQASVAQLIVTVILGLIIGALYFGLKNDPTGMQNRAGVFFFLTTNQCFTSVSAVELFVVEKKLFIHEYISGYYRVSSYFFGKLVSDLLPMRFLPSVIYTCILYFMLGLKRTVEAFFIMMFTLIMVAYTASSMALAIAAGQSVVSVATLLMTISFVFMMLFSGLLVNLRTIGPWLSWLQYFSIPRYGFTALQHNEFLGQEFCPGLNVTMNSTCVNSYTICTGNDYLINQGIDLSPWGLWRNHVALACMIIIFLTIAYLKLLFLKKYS
# [3] = system: Abcg2; assay: GF120918 "chemical knockout" of nitrofurantoin transfer into rat milk; assay type: in vivo, Sprague Dawley rat; details: GF120918 10 mg/kg treated group vs control; lactating rats
# [4] = biological target: T1, rat Abcg2; assay: Hoechst 33342 accumulation in MDCKII-rAbcg2 cells; assay type: cell-based; details: 1 μM GF120918, 10μM Hoechst 33342
# [5] = system: human ABCG2; details: read-out: IC50 on efflux or accumulation; cell lines transfected with human ABCG2; ref Ahmed-Belkacem et al., 2005; Pan et al., 2007; cited from earlier work
# [6] = system: murine Bcrp1; details: polarized cell lines; ref Merino et al., 2005; cited from earlier work
# [7] = system: Bcrp1; details: ref Merino et al., 2005, cited from earlier work
# [8] = system: human BCRP; details: polarized cell lines; ref Merino et al., 2005; cited from earlier work
# [9] = MDCKII-rat Abcg2 vs MDCKII-empty cells, 10μM nitrofurantoin
smiles,measurement,setting,value
O=C1c2c(O)ccc(O)c2C(=O)c2c(NCCNCCO)ccc(NCCNCCO)c21 [mitoxantrone],accumulation in the presence of GF120918,[1],significantly increased
"COc1cc2c(cc1OC)CN(CCc1ccc(NC(=O)c3cccc4c(=O)c5cccc(OC)c5[nH]c34)cc1)CC2 [GF120918, N-(4-[2-(1,2,3,4-tetrahydro-6,7-dimethoxy-2-isoquinolinyl)ethyl]-phenyl)-9,10-dihydro-5-methoxy-9-oxo-4-acridine carboxamide]",effect on nitrofurantoin transport/efflux by rat Abcg2,"[2]; 1 μM GF120918, MDCKII-rAbcg2 cells",largely reversed; also recorded: effectively inhibit
same,reduction in the M/S of nitrofurantoin,[3],93%
same,effect on Hoechst 33342 efflux phenotype (reduced accumulation),[4],reversed; also recorded: effectively inhibit
same,IC50,[5],~300 nM
"O=C1CN(/N=C/c2ccc([N+](=O)[O-])o2)C(=O)N1 [nitrofurantoin, Nitrofurantoin]",transport by murine Bcrp1,[6],efficiently transported
same,"area under the concentration time curve, Bcrp1 knockout vs wild-type mice",[7]; intravenous administration,2 fold
same,"area under the concentration time curve, Bcrp1 knockout vs wild-type mice",[7]; oral administration,4 fold
same,decrease in basolateral transport,[2]; [9],55%
same,increase in apical directed transport,[2]; [9],7.5 fold
same,transport by human BCRP,[8],efficiently transported
